Measurements published in paper PMC11921695 (BMC Cancer, 2025).

Test system: patients with HIV-associated KS

Cn1cnc2c(F)c(Nc3ccc(Br)cc3Cl)c(C(=O)NOCCO)cc21 [selumetinib, 6-(4-Bromo-2-chloro-phenylamino)-7-fluro-3-methyl-3 H-benzoimidazole-5-carboxylic acid (2-hydroxy-ethoxy)-amide hydrogen sulphate]
29: Skin and subcutaneous tissue disorders: Adverse Events Grade 1 E (E = events, any dose)
0: Blood and lymphatic system disorders: Adverse Events Grade3 E (E = events, any dose) | Blood and lymphatic system disorders: Adverse Reactions Grade 3 E (E = events, any dose) | Cardiac disorders: Adverse Events Grade 2 E (E = events, any dose) | Cardiac disorders: Adverse Events Grade3 E (E = events, any dose) | Cardiac disorders: Adverse Reactions Grade 1 E (E = events, any dose) | Cardiac disorders: Adverse Reactions Grade 2 E (E = events, any dose) | Cardiac disorders: Adverse Reactions Grade 3 E (E = events, any dose) | Eye disorders: Adverse Events Grade3 E (E = events, any dose) | Eye disorders: Adverse Reactions Grade 3 E (E = events, any dose) | Gastrointestinal disorders: Adverse Events Grade3 E (E = events, any dose) | Gastrointestinal disorders: Adverse Reactions Grade 3 E (E = events, any dose) | General disorders and administration site conditions: Adverse Reactions Grade 3 E (E = events, any dose) | Infections and infestations: Adverse Events Grade3 E (E = events, any dose) | Infections and infestations: Adverse Reactions Grade 3 E (E = events, any dose) | Injury, poisoning and procedural complications: Adverse Events Grade3 E (E = events, any dose) | Injury, poisoning and procedural complications: Adverse Reactions Grade 1 E (E = events, any dose) | Injury, poisoning and procedural complications: Adverse Reactions Grade 2 E (E = events, any dose) | Injury, poisoning and procedural complications: Adverse Reactions Grade 3 E (E = events, any dose) | Investigations: Adverse Reactions Grade 3 E (E = events, any dose) | Metabolism and nutrition disorders: Adverse Events Grade 2 E (E = events, any dose) | Metabolism and nutrition disorders: Adverse Events Grade3 E (E = events, any dose) | Metabolism and nutrition disorders: Adverse Reactions Grade 2 E (E = events, any dose) | Metabolism and nutrition disorders: Adverse Reactions Grade 3 E (E = events, any dose) | Musculoskeletal and connective tissue disorders: Adverse Events Grade 2 E (E = events, any dose) | Musculoskeletal and connective tissue disorders: Adverse Events Grade3 E (E = events, any dose) | Musculoskeletal and connective tissue disorders: Adverse Reactions Grade 2 E (E = events, any dose) | Musculoskeletal and connective tissue disorders: Adverse Reactions Grade 3 E (E = events, any dose) | Nervous system disorders: Adverse Events Grade 2 E (E = events, any dose) | Nervous system disorders: Adverse Events Grade3 E (E = events, any dose) | Nervous system disorders: Adverse Reactions Grade 2 E (E = events, any dose) | Nervous system disorders: Adverse Reactions Grade 3 E (E = events, any dose) | Psychiatric disorders: Adverse Events Grade 2 E (E = events, any dose) | Psychiatric disorders: Adverse Events Grade3 E (E = events, any dose) | Psychiatric disorders: Adverse Reactions Grade 2 E (E = events, any dose) | Psychiatric disorders: Adverse Reactions Grade 3 E (E = events, any dose) | Renal and urinary disorders: Adverse Events Grade 2 E (E = events, any dose) | Renal and urinary disorders: Adverse Events Grade3 E (E = events, any dose) | Renal and urinary disorders: Adverse Reactions Grade 2 E (E = events, any dose) | Renal and urinary disorders: Adverse Reactions Grade 3 E (E = events, any dose) | Respiratory, thoracic and mediastinal disorders: Adverse Events Grade3 E (E = events, any dose) | Respiratory, thoracic and mediastinal disorders: Adverse Reactions Grade 3 E (E = events, any dose) | Vascular disorders: Adverse Events Grade 2 E (E = events, any dose) | Vascular disorders: Adverse Events Grade3 E (E = events, any dose) | Vascular disorders: Adverse Reactions Grade 1 E (E = events, any dose) | Vascular disorders: Adverse Reactions Grade 2 E (E = events, any dose) | Vascular disorders: Adverse Reactions Grade 3 E (E = events, any dose)
13: ALT Increased: Number of AEs reported (CTCAE Grade ≤2) | Gastrointestinal disorders: Adverse Events Grade 2 E (E = events, any dose) | Metabolism and nutrition disorders: Adverse Events Grade 1 E (E = events, any dose)
6: Eye disorders: Adverse Reactions Grade 1 E (E = events, any dose) | Infections and infestations: Adverse Events Grade 2 E (E = events, any dose) | Investigations: Adverse Reactions Grade 2 E (E = events, any dose)
44: Gastrointestinal disorders: Adverse Reactions Grade 1 E (E = events, any dose)
133: Investigations: Adverse Events Grade 1 E (E = events, any dose)
three: grade 3 ARs, all rash acneiform (75 mg bd selumetinib)
7: Investigations: Adverse Events Grade 2 E (E = events, any dose) | Nervous system disorders: Adverse Events Grade 1 E (E = events, any dose)
16: patients who experienced at least one adverse event (AE) (16 treated patients) | Skin and subcutaneous tissue disorders: Adverse Reactions Grade 2 E (E = events, any dose)
14: CPK Increased: Number of AEs reported (CTCAE Grade ≤2)
23: General disorders and administration site conditions: Adverse Reactions Grade 1 E (E = events, any dose)
81: Investigations: Adverse Reactions Grade 1 E (E = events, any dose)
1: Blood and lymphatic system disorders: Adverse Events Grade 2 E (E = events, any dose) | Blood and lymphatic system disorders: Adverse Reactions Grade 2 E (E = events, any dose) | Cardiac disorders: Adverse Events Grade 1 E (E = events, any dose) | General disorders and administration site conditions: Adverse Events Grade3 E (E = events, any dose) | Infections and infestations: Adverse Reactions Grade 1 E (E = events, any dose) | Renal and urinary disorders: Adverse Reactions Grade 1 E (E = events, any dose) | Respiratory, thoracic and mediastinal disorders: Adverse Reactions Grade 2 E (E = events, any dose) | Blood and lymphatic system disorders: Adverse Events Grade 2 N (N = patients, any dose)
10: Fatigue: Number of AEs reported (CTCAE Grade ≤2)
47: Gastrointestinal disorders: Adverse Events Grade 1 E (E = events, any dose)
22: Red Blood Cell Count Decreased: Number of AEs reported (CTCAE Grade ≤2)
4: Blood and lymphatic system disorders: Adverse Reactions Grade 1 E (E = events, any dose) | Infections and infestations: Adverse Reactions Grade 2 E (E = events, any dose) | Musculoskeletal and connective tissue disorders: Adverse Events Grade 1 E (E = events, any dose) | Blood and lymphatic system disorders: Adverse Events Grade 1 N (N = patients, any dose)
5: Blood and lymphatic system disorders: Adverse Events Grade 1 E (E = events, any dose) | General disorders and administration site conditions: Adverse Events Grade 2 E (E = events, any dose) | Nervous system disorders: Adverse Reactions Grade 1 E (E = events, any dose) | Respiratory, thoracic and mediastinal disorders: Adverse Reactions Grade 1 E (E = events, any dose)
33: General disorders and administration site conditions: Adverse Events Grade 1 E (E = events, any dose)
12: Albumin Decreased: Number of AEs reported (CTCAE Grade ≤2)
11: AST Increased: Number of AEs reported (CTCAE Grade ≤2) | Nausea: Number of AEs reported (CTCAE Grade ≤2) | Vomiting: Number of AEs reported (CTCAE Grade ≤2) | Respiratory, thoracic and mediastinal disorders: Adverse Events Grade 1 E (E = events, any dose)
17: Skin and subcutaneous tissue disorders: Adverse Events Grade 2 E (E = events, any dose)
9: Eye disorders: Adverse Events Grade 1 E (E = events, any dose) | Gastrointestinal disorders: Adverse Reactions Grade 2 E (E = events, any dose) | Metabolism and nutrition disorders: Adverse Reactions Grade 1 E (E = events, any dose)
2: General disorders and administration site conditions: Adverse Reactions Grade 2 E (E = events, any dose) | Infections and infestations: Adverse Events Grade 1 E (E = events, any dose) | Injury, poisoning and procedural complications: Adverse Events Grade 1 E (E = events, any dose) | Investigations: Adverse Events Grade3 E (E = events, any dose) | Musculoskeletal and connective tissue disorders: Adverse Reactions Grade 1 E (E = events, any dose) | Renal and urinary disorders: Adverse Events Grade 1 E (E = events, any dose) | Respiratory, thoracic and mediastinal disorders: Adverse Events Grade 2 E (E = events, any dose) | Vascular disorders: Adverse Events Grade 1 E (E = events, any dose)
24: Skin and subcutaneous tissue disorders: Adverse Reactions Grade 1 E (E = events, any dose)
3: Eye disorders: Adverse Events Grade 2 E (E = events, any dose) | Eye disorders: Adverse Reactions Grade 2 E (E = events, any dose) | Injury, poisoning and procedural complications: Adverse Events Grade 2 E (E = events, any dose) | Psychiatric disorders: Adverse Events Grade 1 E (E = events, any dose) | Psychiatric disorders: Adverse Reactions Grade 1 E (E = events, any dose) | Skin and subcutaneous tissue disorders: Adverse Events Grade3 E (E = events, any dose) | Skin and subcutaneous tissue disorders: Adverse Reactions Grade 3 E (E = events, any dose)
